Source: US12655116B2, “Substituted isophthalic acid diamides” (Bayer Aktiengesellschaft, priority 2020, dated 2026)

What was measured:
ABUTH [1] = assay: Pre-emergence herbicidal action against ABUTH; format: in vivo, Abutilon theophrasti
Summary of the method: (§1)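 Pre-emergence soil-surface spray of formulated compound (WP or EC; 600 to 800 l/ha; 0.2% wetting agent) over seeds sown in sandy loam. After 3 weeks under greenhouse conditions, damage is estimated visually in percent against untreated plants.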

ALOMY [2] = assay: Pre-emergence herbicidal action against ALOMY; format: in vivo, Alopecurus myosuroides; conditions: pre-emergence
Summary of the method: as §1

AMARE [3] = assay: Pre-emergence herbicidal action against AMARE; format: in vivo, Amaranthus retroflexus
Summary of the method: as §1

AVEFA [4] = assay: Pre-emergence herbicidal action against AVEFA; format: in vivo, Avena fatua; conditions: pre-emergence
Summary of the method: as §1

ECHCG [5] = assay: Pre-emergence herbicidal action against ECHCG; format: in vivo, Echinochloa crus-galli; conditions: 80 g/ha
Summary of the method: as §1

LOLRI = assay: Pre-emergence herbicidal action against LOLRI; format: in vivo, Lolium rigidum; conditions: 80 g/ha
Summary of the method: as §1

MATIN [6] = assay: Pre-emergence herbicidal action against MATIN; format: in vivo, Matricaria inodora
Summary of the method: as §1

PHBPU [7] = assay: Pre-emergence herbicidal action against PHBPU; format: in vivo, Pharbitis purpurea; conditions: dosage 80 g/ha
Summary of the method: as §1

POLCO = assay: Pre-emergence herbicidal action against POLCO; format: in vivo, Polygonum convolvulus; conditions: dosage 80 g/ha
Summary of the method: as §1

SETVI [8] = assay: Pre-emergence herbicidal action against SETVI; format: in vivo, Setaria viridis; conditions: dosage 80 g/ha
Summary of the method: as §1

STEME = assay: Pre-emergence herbicidal action against STEME; format: in vivo, Stellaria media
Summary of the method: as §1

VERPE = assay: Pre-emergence herbicidal action against VERPE; format: in vivo, Veronica persica; conditions: dosage 80 g/ha
Summary of the method: as §1

VIOTR [9] = assay: Pre-emergence herbicidal action against VIOTR; format: in vivo, Viola tricolor
Summary of the method: as §1

DIGSA [10] = assay: Pre-emergence herbicidal action against DIGSA; format: in vivo, Digitaria sanguinalis
Summary of the method: as §1

ABUTH [11] = assay: Post-emergence herbicidal action against ABUTH; format: in vivo, Abutilon theophrasti; conditions: visual assessment about 3 weeks after treatment vs untreated controls
Summary of the method: (§2)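 Spray, one-leaf stage: WP or EC compound in water, 600–800 l/ha, 0.2% wetting agent. Plants held about 3 weeks in the greenhouse, then visually rated in percent of kill compared with untreated controls.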

AMARE [12] = assay: Post-emergence herbicidal action against AMARE; format: in vivo, Amaranthus retroflexus; conditions: 20 g/ha, visual assessment about 3 weeks after treatment, 100% = plants have died, 0% = like control plants
Summary of the method: as §2

ECHCG [13] = assay: Post-emergence herbicidal action against ECHCG; format: in vivo, Echinochloa crus-galli; conditions: dosage 20 g/ha
Summary of the method: as §2

MATIN [14] = assay: Post-emergence herbicidal action against MATIN; format: in vivo, Matricaria inodora
Summary of the method: as §2

PHBPU [15] = assay: Post-emergence herbicidal action against PHBPU; format: in vivo, Pharbitis purpurea; conditions: dosage 20 g/ha
Summary of the method: as §2

SETVI [16] = assay: Post-emergence herbicidal action against SETVI; format: in vivo, Setaria viridis; conditions: dosage 20 g/ha
Summary of the method: as §2

VIOTR [17] = assay: Post-emergence herbicidal action against VIOTR; format: in vivo, Viola tricolor
Summary of the method: as §2

DIGSA [18] = assay: Post-emergence herbicidal action against DIGSA; format: in vivo, Digitaria sanguinalis; conditions: 20 g/ha
Summary of the method: as §2

ALOMY [19] = assay: Post-emergence herbicidal action against ALOMY; format: in vivo, Alopecurus myosuroides; conditions: Alopecurus myosuroides, 504 h, visual assessment about 3 weeks after treatment vs untreated controls
Summary of the method: as §2

AVEFA [20] = assay: Post-emergence herbicidal action against AVEFA; format: in vivo, Avena fatua; conditions: Avena fatua, 504 h, 20 g/ha, visual assessment about 3 weeks after treatment, 100% = plants have died, 0% = like control plants
Summary of the method: as §2

[21] = 80 g/ha, scored visually after 3 weeks vs untreated controls (100% = plants have died, 0% = like control plants)
[22] = Tripleurospermum inodorum, 504 h, dosage 20 g/ha

CCNC(=O)c1c(C(F)F)ccc(C(=O)Nc2nnnn2CC)c1C [Example 2-45]
Pre-emergence action against ABUTH (herbicidal activity) (ABUTH [1]; [21]): 100%
Pre-emergence action against ABUTH (herbicidal activity in percent) (ABUTH [1]; dosage 20 g/ha, scored visually after 3 weeks vs untreated controls, 100% = plants have died, 0% = like control plants): 80%
Pre-emergence action against ALOMY (herbicidal activity) (ALOMY [2]; [21]): 90%
Pre-emergence action against AMARE in % (AMARE [3]; 20 g/ha, scored visually after 3 weeks vs untreated controls, 100% = plants have died, 0% = like control plants): 100%
Pre-emergence action against AMARE in % (AMARE [3]; [21]): 100%
Pre-emergence action against AVEFA in % (AVEFA [4]; 80 g/ha): 100%
Pre-emergence action against ECHCG in % (ECHCG [5]): 100%
Pre-emergence action against LOLRI in % (LOLRI): 80%
Pre-emergence action against MATIN in % (MATIN [6]; dosage 20 g/ha): 90%
Pre-emergence action against MATIN in % (MATIN [6]; dosage 80 g/ha): 100%
Pre-emergence action against PHBPU in % (PHBPU [7]): 80%
Pre-emergence action against POLCO in % (POLCO): 90%
Pre-emergence action against SETVI in % (SETVI [8]): 100%
Pre-emergence action against STEME in % (STEME; dosage 20 g/ha): 90%
Pre-emergence action against STEME in % (STEME; dosage 80 g/ha): 100%
Pre-emergence action against VERPE in % (VERPE): 90%
Pre-emergence action against VIOTR in % (VIOTR [9]; dosage 20 g/ha): 90%
Pre-emergence action against VIOTR in % (VIOTR [9]; dosage 80 g/ha): 100%
Pre-emergence action against DIGSA in % (DIGSA [10]; dosage 20 g/ha): 90%
Pre-emergence action against DIGSA in % (DIGSA [10]; dosage 80 g/ha): 100%
Post-emergence action against ABUTH in % (ABUTH [11]; dosage 5 g/ha): 80%
Post-emergence action against ABUTH in % (ABUTH [11]; dosage 20 g/ha): 80%
Post-emergence action at 20 g/ha against AMARE in % (AMARE [12]): 100%
Post-emergence action against ECHCG in % (ECHCG [13]): 80%
Post-emergence action against MATIN in % (MATIN [14]; dosage 20 g/ha): 80%
Post-emergence action against PHBPU in % (PHBPU [15]): 80%
Post-emergence action against SETVI in % (SETVI [16]): 80%
Post-emergence action against VIOTR in % (VIOTR [17]; 5 g/ha): 80%
Post-emergence action against VIOTR in % (VIOTR [17]; 20 g/ha): 100%
Post-emergence action against DIGSA (DIGSA [18]): 80%

CCNC(=O)c1c(Br)ccc(C(=O)Nc2nnnn2CC)c1Cl [Example 2-178]
pest or weed control at 80 g/ha (ABUTH [1]; Abutilon theophrasti, 504 h, 80 g/ha, scored visually after 3 weeks vs untreated controls (100% = plants have died, 0% = like control plants)): 100%
pest or weed control at 80 g/ha (ALOMY [2]; Alopecurus myosuroides, 504 h, 80 g/ha, scored visually after 3 weeks vs untreated controls (100% = plants have died, 0% = like control plants)): 100%
pest or weed control at 20 g/ha (ALOMY [2]; Alopecurus myosuroides, 504 h, 20 g/ha, scored visually after 3 weeks, 100% = plants have died, 0% = like control plants): 80%
pest or weed control at 20 g/ha (AMARE [3]; Amaranthus retroflexus, 504 h, 20 g/ha, scored visually after 3 weeks vs untreated controls, 100% = plants have died, 0% = like control plants): 100%
pest or weed control at 80 g/ha (AMARE [3]; Amaranthus retroflexus, 504 h, 80 g/ha, scored visually after 3 weeks vs untreated controls, 100% = plants have died, 0% = like control plants): 100%
pest or weed control at 80 g/ha (AVEFA [4]; Avena fatua, 504 h, 80 g/ha): 100%
pest or weed control at 20 g/ha (AVEFA [4]; Avena fatua, 504 h, 20 g/ha, scored visually after 3 weeks, 100% = plants have died, 0% = like control plants): 90%
pest or weed control at 80 g/ha (ECHCG [5]; Echinochloa crus-galli, 504 h): 100%
pest or weed control at 80 g/ha (LOLRI; Lolium rigidum, 504 h): 80%
pest or weed control at 20 g/ha (MATIN [6]; [22]): 90%
pest or weed control at 80 g/ha (MATIN [6]; Tripleurospermum inodorum, 504 h, dosage 80 g/ha): 100%
pest or weed control at 80 g/ha (SETVI [8]; Setaria viridis, 504 h): 100%
pest or weed control at 80 g/ha (VERPE; Veronica persica, 504 h): 90%
pest or weed control at 20 g/ha (VIOTR [9]; Viola tricolor, 504 h, dosage 20 g/ha): 100%
pest or weed control at 80 g/ha (VIOTR [9]; Viola tricolor, 504 h, dosage 80 g/ha): 100%
pest or weed control at 20 g/ha (DIGSA [10]; Digitaria sanguinalis, 504 h, dosage 20 g/ha): 100%
pest or weed control at 80 g/ha (DIGSA [10]; Digitaria sanguinalis, 504 h, dosage 80 g/ha): 100%
pest or weed control at 5 g/ha (ABUTH [11]; Abutilon theophrasti, 504 h, dosage 5 g/ha): 90%
pest or weed control at 20 g/ha (ABUTH [11]; Abutilon theophrasti, 504 h, dosage 20 g/ha): 90%
pest or weed control at 5 g/ha (ALOMY [19]; dosage 5 g/ha): 80%
pest or weed control at 20 g/ha (ALOMY [19]; dosage 20 g/ha): 90%
pest or weed control at 20 g/ha (AMARE [12]; Amaranthus retroflexus, 504 h): 100%
pest or weed control at 20 g/ha (AVEFA [20]): 80%
pest or weed control at 20 g/ha (ECHCG [13]; Echinochloa crus-galli, 504 h): 90%
pest or weed control at 5 g/ha (MATIN [14]; Tripleurospermum inodorum, 504 h, dosage 5 g/ha): 90%
pest or weed control at 20 g/ha (MATIN [14]; [22]): 90%
pest or weed control at 20 g/ha (PHBPU [15]; Ipomoea purpurea, 504 h): 90%
pest or weed control at 20 g/ha (SETVI [16]; Setaria viridis, 504 h): 90%
pest or weed control at 20 g/ha (VIOTR [17]; Viola tricolor, 504 h, 20 g/ha): 90%
